Source: article PMC12717099, “Peptidoglycan recruitment by a penicillin binding protein” (Nature Communications, 2025)

Tests used:
[1] = tested on: E. faecium D344SRF, Wild Type; test: MIC by broth microdilution, Wild Type; type: cell-based, Enterococcus faecium; details: strain Wild Type; BHI broth microdilution, 37 °C, 20 h, read by eye; n=3
Protocol: (§1) E. faecium strains were streaked fresh from −80 °C stored glycerol stocks onto brain heart infusion (BHI) agar plates and incubated for 18 h at 37 °C. Strains harboring the plasmid derivatives were grown under antibiotic pressure on agar plates containing kanamycin at 1500 µg/ml. A single colony was inoculated into BHI or BHI-kanamycin (1500 µg/ml) for overnight cultures (18 h).
(§2) MIC determination was performed using a standard broth microdilution technique in duplicate from independent cultures. Overnight cultures were inoculated into 3 ml of BHI or BHI-kanamycin (1500 µg/ml) broth in a dilution of 1:100 and incubated until an OD600 of ~0.5 was reached. Cultures were diluted 1:1000 and inoculated into the 96-well plates with the corresponding antibiotics to be tested. Plates were incubated at 37 °C for 20 h and read by eye. The MICs were defined as the lowest antibiotic concentration that inhibited growth.

[2] = tested on: E. faecium D344SRF pCWR624Δpbp5_pbp5_V1; test: MIC by broth microdilution, pbp5_V1; type: cell-based, Enterococcus faecium; details: strain pbp5_V1 (N523A); 37 °C, 20 h; n=3
Protocol: The synthetic genes were purchased from GeneWiz (South Plainfield, NJ). The ribosome binding site sequence AGGAGG (Shine-Dalgarno), and a string of five A’s followed by the sequence […], that corresponds to the first 15 bp found in pbp5 from E. faecium C68 were added upstream of the START codon. The terminator sequence […] was added downstream of the STOP codon. BamHI restriction sites were added to the flanking 5′ and 3′ ends. The synthetic genes were inserted into the vector pCWR624Δpbp5. This vector was derived from pCWR624[10], in which the pbp5 gene from D366 was excised by digestion with BamHI followed by re-ligation of the vector, allowing subsequent insertion of modified synthetic pbp5s into the BamHI site downstream of ftsWEfm and psr from E. faecium C68[10]. The synthetic genes were inserted in a BamHI site located downstream of psr. The proper orientation was confirmed by PCR amplification using the forward primer OR_pbp5_FOR_1 (5′-[…]-3′) and the reverse primer OR_pbp5_REV_1 (5′-[…]-3′). Plasmids were sequence verified for the specific binding site mutations. The resulting constructions were electroporated into the natural pbp5(-) mutant E. faecium D344SRF with a selection on brain heart infusion agar (BHI) plates containing kanamycin (1500 µg/ml).
as §1
as §2, with “The MICs were defined as the lowest antibiotic concentration that inhibited growth.” left out

[3] = tested on: PBP5:ceftaroline complex (1:8); test: NMR CSP titration of SP2 into ceftaroline-saturated PBP5; type: binding, Enterococcus faecium; details: PBP5:ceftaroline 1:8
Protocol: Data was processed using Topspin 4.1.4 (Bruker) and analyzed using NMRFAM-SPARKY 1.3 and Poky (build number 20240829)[20],[21]. The sequence-specific backbone assignment of PBP5 is publicly available at BMRBID 51690.
SPs (SP1 to SP7) were titrated into 0.5 mM (^2H,^15N)-labeled and 0.1 mM (^2H,^15N)/^13C ILV labeled PBP5 at molar ratios of 0:1, 5:1, 10:1, 20:1, 40:1, 60:1, and 80:1 (stem peptide/SP:PBP5; molar ratios). 2D [^1H,^15N] TROSY or 2D [^1H,^13C] HMQC spectra were recorded for each titration point. SPs were solubilized in NMR buffer. Chemical shift perturbations (Δδ) between PBP5 and SP bound PBP5 spectra were calculated using Eq. 1,1 Δδppm=ΔδH^2+ΔδX/Y^2 where, X is ^15N or ^13C and Y is the constant i.e., 10 for ^15N and 4 for ^13C.
Residues with significant CSPs were identified by calculating the standard deviation of all CSPs (σ), then excluding any CSPs larger than average+2σ, recalculating σ as a new corrected σ0, and then repetitively removing CSPs above 2σ0 until no additional CSPs can be removed. CSPs above ≥2σ2 was the statistical threshold for ^1H/^15N backbone CSP analysis and ≥2xσ1 for ^1H/^13C methyl ILV data for the interaction of SP1 with PBP5. The same threshold values were used for all other peptides to allow for direct comparison with the SP1/PBP5 interaction. […]

PBP5-S422A = test: 1D 1H STD NMR of SP2 with PBP5-S422A; type: binding, Enterococcus faecium; details: for STD amplification factor, 2000: 2 s saturation
From the text: Total saturation time for STD measurements was 2 s.
Overlapped peaks were completely excluded from the analysis.

With `CO/N=C(\C(=O)N[C@@H]1C(=O)N2C(C(=O)O)=C(CSc3nc(=O)c(=O)[nH]n3C)CS[C@H]12)c1csc(N)n1` [Ceftriaxone, ceftriaxone] the “MIC (µg/ml) [Range]” value [1] was 50 [25-100] µg/ml and the “MIC (µg/ml) [Range]” value [2] was 3200 [1600-3200] µg/ml.

With D-Lac-L-Ala-D-iGln-L-Lys(D-iAsn) [SP2] the “CSPs with ceftaroline-saturated PBP5 vs β-lactam free and PenG-saturated PBP5, in words” value [3] was “virtually identical”, the “STD % to SP1” value (PBP5-S422A; 1H DLacβ) was 42.7391% and the “STD amplification factor as fraction of highest SP1:PBP5 value” (shortened to “STD amplification factor as fraction”) (PBP5-S422A; 1H DLacβ) was 0.4274. The “STD amplification factor, 2000” value (PBP5-S422A; 1H DLacβ) was 11.5004, the “STD % to SP1” value (PBP5-S422A; 1H DQ2β (first listed)) was 84.4303% and the “STD amplification factor as fraction” value (PBP5-S422A; 1H DQ2β (first listed)) was 0.8443. The “STD amplification factor, 2000” value (PBP5-S422A; 1H DQ2β (first listed)) was 22.7188, the “STD % to SP1” value (PBP5-S422A; 1H DQ2β (second listed)) was 106.599% and the “STD amplification factor as fraction” value (PBP5-S422A; 1H DQ2β (second listed)) was 1.066. For the same compound, the “STD amplification factor, 2000” value (PBP5-S422A; 1H DQ2β (second listed)) was 28.6841, the “STD % to SP1” value (PBP5-S422A; 1H DQ2γ) was 33.2164% and the “STD amplification factor as fraction” value (PBP5-S422A; 1H DQ2γ) was 0.3322. The “STD amplification factor, 2000” value (PBP5-S422A; 1H DQ2γ) was 8.938, the “STD % to SP1” value (PBP5-S422A; 1H K3α) was 52.4105% and the “STD amplification factor as fraction” value (PBP5-S422A; 1H K3α) was 0.5241. For the same compound, the “STD amplification factor, 2000” value (PBP5-S422A; 1H K3α) was 14.1028, the “STD % to SP1” value (PBP5-S422A; 1H K3β) was 115.403% and the “STD amplification factor as fraction” value (PBP5-S422A; 1H K3β) was 1.154. The “STD amplification factor, 2000” value (PBP5-S422A; 1H K3β) was 31.053, the “STD % to SP1” value (PBP5-S422A; 1H K3γ) was 71.5712% and the “STD amplification factor as fraction” value (PBP5-S422A; 1H K3γ) was 0.7157. The “STD amplification factor, 2000” value (PBP5-S422A; 1H K3γ) was 19.2587, the “STD % to SP1” value (PBP5-S422A; 1H K3δ) was 86.8848% and the “STD amplification factor as fraction” value (PBP5-S422A; 1H K3δ) was 0.8688. The “STD amplification factor, 2000” value (PBP5-S422A; 1H K3δ) was 23.3793, the “STD % to SP1” value (PBP5-S422A; 1H K3ε) was 15.5454% and the “STD amplification factor as fraction” value (PBP5-S422A; 1H K3ε) was 0.1555. For the same compound, the “STD amplification factor, 2000” value (PBP5-S422A; 1H K3ε) was 4.183, the “STD % to SP1” value (PBP5-S422A; 1H LA1α) was 31.0506% and the “STD amplification factor as fraction” value (PBP5-S422A; 1H LA1α) was 0.3105. The “STD amplification factor, 2000” value (PBP5-S422A; 1H LA1α) was 8.355, the “STD % to SP1” value (PBP5-S422A; 1H LA1β) was 44.3762% and the “STD amplification factor as fraction” value (PBP5-S422A; 1H LA1β) was 0.4438. For the same compound, the “STD amplification factor, 2000” value (PBP5-S422A; 1H LA1β) was 11.9409, the “STD % to SP1” value (PBP5-S422A; 1H iNα,DQ2α) was 24.4286% and the “STD amplification factor as fraction” value (PBP5-S422A; 1H iNα,DQ2α) was 0.2443. For the same compound, the “STD amplification factor, 2000” value (PBP5-S422A; 1H iNα,DQ2α) was 6.573, the “STD % to SP1” value (PBP5-S422A; 1H iNβ) was 38.4337% and the “STD amplification factor as fraction” value (PBP5-S422A; 1H iNβ) was 0.3843. The “STD amplification factor, 2000” value (PBP5-S422A; 1H iNβ) was 10.3419.
